# From PubChem BioAssay (NCI)
#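 Results reflect a 48-hour exposure of cells in 96-well plates to compound at five concentrations. GI50 is the concentration that inhibits growth by half. The concentration for full growth arrest is given as TGI.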
# Tests used:
# Test in all cases: NCI anticancer screen, dose series, 48 h
# [1] = test system: UACC-62 melanoma
# [2] = test system: SF-539 CNS
# [3] = test system: HCC-2998 colon
# [4] = test system: A498 renal
# [5] = test system: EKVX NSCLC
# [6] = test system: SK-MEL-5 melanoma
# [7] = test system: OVCAR-4 ovarian
# [8] = test system: SN12C renal
# [9] = test system: PC-3 prostate
# [10] = test system: SNB-19 CNS
# [11] = test system: NCI-H23 lung
# [12] = test system: IGROV1 ovarian
# [13] = test system: HL-60(TB) leukemia
# [14] = test system: HOP-62 NSCLC
# [15] = test system: HCT-15 colon
# [16] = test system: MCF7 breast
# [17] = test system: SR leukemia
# [18] = test system: NCI-H226 lung
# [19] = test system: CCRF-CEM leukemia
# [20] = test system: ACHN renal
# [21] = test system: OVCAR-5 ovarian
# [22] = test system: K-562 leukemia
# [23] = test system: MDA-MB-468 breast
# [24] = test system: HOP-92 NSCLC
# [25] = test system: MDA-MB-231 breast
# [26] = test system: NCI-H460 lung
# [27] = test system: KM12 colon
# [28] = test system: UO-31 renal
# [29] = test system: RXF 393 renal
# [30] = test system: SK-MEL-28 melanoma
# [31] = test system: MOLT-4 leukemia
# [32] = test system: SK-OV-3 ovarian
# [33] = test system: SNB-75 CNS
# [34] = test system: CAKI-1 renal
# [35] = test system: TK-10 renal
# [36] = test system: A549 NSCLC
# [37] = test system: SF-268 CNS
# [38] = test system: SF-295 CNS
# [39] = test system: LOX IMVI melanoma
# [40] = test system: HS 578T breast
compound,measurement,setting,value
CSc1ccc(C(=O)Nc2ccc3nnn(/C(C#N)=C/c4ccccn4)c3c2)cc1,GI50,[1],1.68 µM
same,TGI,[1],3.35 µM
same,GI50,[2],1.66 µM
same,TGI,[2],3.05 µM
same,GI50,[3],1.79 µM
same,TGI,[3],3.26 µM
same,GI50,[4],13.2 µM
same,TGI,[4],53.3 µM
same,GI50,[5],2.15 µM
same,TGI,[5],4.89 µM
same,GI50,[6],2.01 µM
same,TGI,[6],4.79 µM
same,GI50,[7],4.53 µM
same,TGI,[7],> 100 µM
same,GI50,[8],2.13 µM
same,TGI,[8],4.97 µM
same,GI50,[9],2.74 µM
same,TGI,[9],7.14 µM
same,GI50,[10],3.14 µM
same,TGI,[10],12.1 µM
same,GI50,[11],1.78 µM
same,TGI,[11],3.5 µM
same,GI50,[12],1.91 µM
same,TGI,[12],3.8 µM
same,GI50,[13],2.67 µM
same,TGI,[13],> 100 µM
same,GI50,[14],3.11 µM
same,TGI,[14],12.6 µM
same,GI50,[15],1.66 µM
same,TGI,[15],3.53 µM
same,GI50,[16],1.28 µM
same,TGI,[16],2.72 µM
same,GI50,[17],2.75 µM
same,TGI,[17],> 100 µM
same,GI50,[18],3.76 µM
same,TGI,[18],26.9 µM
same,GI50,[19],2.1 µM
same,TGI,[19],> 100 µM
same,GI50,[20],1.74 µM
same,TGI,[20],3.11 µM
same,GI50,[21],1.75 µM
same,TGI,[21],3.19 µM
same,GI50,[22],2.53 µM
same,TGI,[22],> 100 µM
same,GI50,[23],1.31 µM
same,TGI,[23],2.91 µM
same,GI50,[24],1.79 µM
same,TGI,[24],4.62 µM
same,GI50,[25],1.76 µM
same,TGI,[25],3.23 µM
same,GI50,[26],2.2 µM
same,TGI,[26],4.35 µM
same,GI50,[27],1.94 µM
same,TGI,[27],4.65 µM
same,GI50,[28],1.37 µM
same,TGI,[28],2.65 µM
same,GI50,[29],1.5 µM
same,TGI,[29],2.84 µM
same,GI50,[30],1.68 µM
same,TGI,[30],3.11 µM
same,GI50,[31],3.57 µM
same,TGI,[31],> 100 µM
same,GI50,[32],24.5 µM
same,TGI,[32],> 100 µM
same,GI50,[33],3.97 µM
same,TGI,[33],25.4 µM
same,GI50,[34],1.33 µM
same,TGI,[34],2.65 µM
same,GI50,[35],1.66 µM
same,TGI,[35],3.11 µM
same,GI50,[36],3.46 µM
same,TGI,[36],> 100 µM
same,GI50,[37],4.16 µM
same,TGI,[37],45.3 µM
same,GI50,[38],6.89 µM
same,TGI,[38],21.4 µM
same,GI50,[39],1.52 µM
same,TGI,[39],2.92 µM
same,GI50,[40],2.51 µM
same,TGI,[40],7.12 µM
